This is an account of results in patent publication USRE42890E1, “Furazanobenzimidazoles” (Basilea Pharmaceutica AG, priority 2003, dated 2011).

Read-outs that look alike come from different tables or passages of the source.

In assay [1] the test system is Jurkat. The assay is described as follows: MTS proliferation assay, Jurkat. It counts as cell-based, human. As to conditions: 72 h incubation, read-out: MTS proliferation assay IC 50 Jurkat. On the procedure: (§1) Cell lines are cultured in RPMI-1640 tissue culture medium containing either 5% or 10% fetal calf serum, 0.05 mM 2-mercaptoethanol, 2 mM glutamine and penicillin/streptomycin 50 μg/ml (complete medium) (Sigma, Buchs, Switzerland). General growth conditions are 37° C. and 7.5% CO2.
(§2) The following human cell lines (either EGFP transfected or not) are being used: HeLa (ATCC: CCL-2), KB (ATCC: CCL-17), MCF7 (ATCC: HTB-22), SK-BR-3 (ATCC: HTB-30), SK-Mel 1 (ATCC: HTB-67), SK-Mel 28 (ATCC: HTB-72), PC-3 (ATCC: CRL-1435), SW 480 (ATCC: CCL-228), NCl-H460 (ATCC: HTB-177), NCl-H1792 (ATCC: CRL-5895), HT1080 (ATCC: CCL-21), Jurkat (ATCC: TIB-152), Ramos (ATCC: CRL-1596), Raji (ATCC: CCL-86), H9 (ATCC: HTB-176), Hut78 (ATCC: TIB-161), K562 (ATCC: CCL 243), HL-60 (ATCC: CCL 240), U-87MG (ATCC: HTB-14), HepG2 (ATCC: HB-8065), U-2 OS (ATCC: HTB-96), Saos-2 (ATCC: HTB-85), U937 (ATCC: CRL 1593), Hs 578T (ATCC: HTB 126), HBL-100 (ATCC: HTB 124), Molt-4 (ATCC: CRL 1582).
(§3) The assay is performed in 96 well tissue culture plates. The cells (range: 1.5*10^3-10^4) are seeded out in 80 μl complete medium 24 h prior to compound treatment. The test compounds are added in 20 μl complete medium containing max 5% DMSO. The final compound concentrations in the assays are 10 μM, 3 μM, 1 μM and 0.3 μM, respectively. The assay plates are incubated for 72 h at culture conditions. The MTS reagent is prepared according to the manufacturer's protocol (Promega G1111). 20 μl MTS reagent are added to each well, the assay plates are quickly spun and incubated for another 3 h at culture conditions. Subsequently, the plates are shortly shaked and absorption measured with a microplate-reader at 492 nm.
For orientation: Formazan colour is commonly taken as a measure of viable cells.

The test system of assay [2] is adherent cells or suspension cells. The assay is described as follows: Hoechst 33342 nuclear staining (fraction of apoptotic nuclei). It counts as cell-based. Also noted: key: 0 relating to no activity; 1 relating to weak activity comprising less than 70% of the cells; score 2 relating to strong activity comprising more than 70% of the cells. On the procedure: as §1
This assay is performed in 96 well tissue culture plates. Appropriate number of cells (adherent cells: 3-5*10^3, suspension cells: 8-10*10^3) are being seeded out in 80 μl complete medium. Adherent cells are incubated for 24 h for proper spreading out before addition of test compounds while suspension cells are immediately treated with test compounds after seeding out. The test compounds are added in 20 μl complete medium containing max 5% DMSO. […] After 24 h or 48 h incubation at culture conditions, 10 μl medium containing Hoechst 33342 dye (Sigma B-2261) at 2-5 μg/ml are added to each well. The assay plates are then further incubated for 30 minutes and subsequently analyzed with a standard inverted fluorescence microscope.
The readout allows the determination of the fraction of apoptotic nuclei as well as other morphological criteria specific for apoptosis as a function of the treatment. The following scores are used: 0 relating to no activity, 1 relating to weak activity comprising less than 70% of the cells and score 2 relating to strong activity comprising more than 70% of the cells.

Assay [3] relates to HeLa. Put plainly: MTS proliferation assay, HeLa. The assay is classed as cell-based, human. As to conditions: 72 h incubation, read-out: MTS proliferation assay IC 50 HeLa. The procedure: as §1, §2, §3
Assay [4] deals with MRC5. Put plainly: MTS proliferation assay, MRC5. It counts as cell-based. As to conditions: MRC5, 72 h incubation, read-out: MTS proliferation assay IC 50 MRC5. On the procedure:
as §1, §3

As for `Nc1nonc1-c1nc2ccccc2n1CC(=NO)c1ccccc1` (mixture of isomers) [Example 17], the IC50 in assay [1] and in assay [3] was greater than 1000 nM each time. Besides, the “Hoechst 33342 nuclear staining score” value in assay [2] (H460, conc 0.01 μm) is reported as 0; in assay [2] (H460, conc 0.1 μm), 0; in assay [2] (H460, conc 1 μm) it was 0; in assay [2] (HeLa, conc 0.01 μm) it was 0; in assay [2] (HeLa, conc 0.1 μm), 0; in assay [2] (HeLa, conc 1 μm) it was 0. Also, the “Hoechst 33342 nuclear staining score” value in assay [2] (Jily, conc 0.01 μm) is reported as 0; in assay [2] (Jily, conc 0.1 μm) it was 0; in assay [2] (Jily, conc 1 μm) it was 0; in assay [2] (Jurkat, conc 0.01 μm), 0; in assay [2] (Jurkat, conc 0.1 μm), 0; in assay [2] (Jurkat, conc 1 μm), 0. Further, the “Hoechst 33342 nuclear staining score” value in assay [2] (MRC5, conc 0.01 μm) is given as 0; in assay [2] (MRC5, conc 0.1 μm) it was 0; in assay [2] (MRC5, conc 1 μm) it was 0; in assay [2] (PBLs, conc 0.01 μm), 0; in assay [2] (PBLs, conc 0.1 μm), 0; in assay [2] (PBLs, conc 1 μm) it was 0.
Regarding `CON=C(Cn1c(-c2nonc2N)nc2ccccc21)c1ccccc1` (mixture of isomers) [Example 18], the figures for the IC50 in assay [1], in assay [4] and in assay [3] were 100 to 1000 nM, 100 to 1000 nM and greater than 1000 nM, respectively. The “Hoechst 33342 nuclear staining score” value is given as 0 in assay [2] (H460, conc 0.01 μm); 0 in assay [2] (H460, conc 0.1 μm); 1 (1 relating to weak activity comprising less than 70% of the cells) in assay [2] (H460, conc 1 μm); 0 in assay [2] (HeLa, conc 0.01 μm); 0 in assay [2] (HeLa, conc 0.1 μm); 2 (score 2 relating to strong activity comprising more than 70% of the cells) in assay [2] (HeLa, conc 1 μm). Further, the “Hoechst 33342 nuclear staining score” value in assay [2] (Jurkat, conc 0.01 μm) is given as 0; in assay [2] (Jurkat, conc 0.1 μm), 0; in assay [2] (Jurkat, conc 1 μm) it was 2 (score 2 relating to strong activity comprising more than 70% of the cells); in assay [2] (MRC5, conc 0.01 μm), 0; in assay [2] (MRC5, conc 0.1 μm), 0; in assay [2] (MRC5, conc 1 μm) it was 1 (1 relating to weak activity comprising less than 70% of the cells). Also, the “Hoechst 33342 nuclear staining score” value in assay [2] (PBLs, conc 0.01 μm) is listed as 0; in assay [2] (PBLs, conc 0.1 μm), 0; in assay [2] (PBLs, conc 1 μm), 0.
On to `COc1ccc(C(Cn2c(-c3nonc3N)nc3ccccc32)=NO)cc1` (mixture of isomers) [Example 20], for which the IC50 in assay [1] was 100 to 1000 nM; in assay [4], greater than 1000 nM; in assay [3], greater than 1000 nM. Also, the “Hoechst 33342 nuclear staining score” value in assay [2] (H460, conc 0.01 μm) amounted to 0; in assay [2] (H460, conc 0.1 μm), 0; in assay [2] (H460, conc 1 μm), 0; in assay [2] (HeLa, conc 0.01 μm), 0; in assay [2] (HeLa, conc 0.1 μm), 0; in assay [2] (HeLa, conc 1 μm), 0. For the same compound, the “Hoechst 33342 nuclear staining score” value in assay [2] (Jurkat, conc 0.01 μm) turned out to be 0; in assay [2] (Jurkat, conc 0.1 μm), 0; in assay [2] (Jurkat, conc 1 μm), 0; in assay [2] (MRC5, conc 0.01 μm) it was 0; in assay [2] (MRC5, conc 0.1 μm), 0; in assay [2] (MRC5, conc 1 μm), 0. Further, the “Hoechst 33342 nuclear staining score” value in assay [2] (PBLs, conc 0.01 μm) amounted to 0; in assay [2] (PBLs, conc 0.1 μm), 0; in assay [2] (PBLs, conc 1 μm), 0.
Take `Nc1nonc1-c1nc2ccccc2n1CC(=NO)c1ccc(Cl)cc1` (mixture of isomers) [Example 21]: the IC50 in assay [1], in assay [4] and in assay [3] was greater than 1000 nM throughout. In addition, the “Hoechst 33342 nuclear staining score” value is given as 0 in assay [2] (H460, conc 0.01 μm); 0 in assay [2] (H460, conc 0.1 μm); 0 in assay [2] (H460, conc 1 μm); 0 in assay [2] (HeLa, conc 0.01 μm); 0 in assay [2] (HeLa, conc 0.1 μm); 0 in assay [2] (HeLa, conc 1 μm). Moreover, the “Hoechst 33342 nuclear staining score” value in assay [2] (Jurkat, conc 0.01 μm) is 0; in assay [2] (Jurkat, conc 0.1 μm), 0; in assay [2] (Jurkat, conc 1 μm), 0; in assay [2] (MRC5, conc 0.01 μm) it was 0; in assay [2] (MRC5, conc 0.1 μm), 0; in assay [2] (MRC5, conc 1 μm) it was 0. For the same compound, the “Hoechst 33342 nuclear staining score” value stood at 0 in assay [2] (PBLs, conc 0.01 μm); 0 in assay [2] (PBLs, conc 0.1 μm); 0 in assay [2] (PBLs, conc 1 μm).
`CON=C(Cn1c(-c2nonc2N)nc2ccccc21)c1ccc(Cl)cc1` (mixture of isomers) [Example 22]: the IC50 in assay [1], in assay [4] and in assay [3] was 100 to 1000 nM throughout. Also, the “Hoechst 33342 nuclear staining score” value was 0 in assay [2] (H460, conc 0.01 μm); 0 in assay [2] (H460, conc 0.1 μm); 0 in assay [2] (H460, conc 1 μm); 0 in assay [2] (HeLa, conc 0.01 μm); 0 in assay [2] (HeLa, conc 0.1 μm); 2 (score 2 relating to strong activity comprising more than 70% of the cells) in assay [2] (HeLa, conc 1 μm). Also, the “Hoechst 33342 nuclear staining score” value in assay [2] (Jurkat, conc 0.01 μm) was 0; in assay [2] (Jurkat, conc 0.1 μm), 0; in assay [2] (Jurkat, conc 1 μm), 2 (score 2 relating to strong activity comprising more than 70% of the cells); in assay [2] (MRC5, conc 0.01 μm), 0; in assay [2] (MRC5, conc 0.1 μm) it was 0; in assay [2] (MRC5, conc 1 μm), 0. Further, the “Hoechst 33342 nuclear staining score” value in assay [2] (PBLs, conc 0.01 μm) came to 0; in assay [2] (PBLs, conc 0.1 μm), 0; in assay [2] (PBLs, conc 1 μm), 0.
`CNc1nonc1-c1nc2ccccc2n1CC(=O)c1ccc(Cl)cc1` [Example 3, Methyl-{4-[1-(4-chlorophenacyl)-1H-benzimidazol-2-yl]-furazan-3-yl}-amine]: the values for the IC50 in assay [1] (Homo sapiens) and in assay [4] (Homo sapiens) were 100 to 1000 nM and greater than 1000 nM, respectively. The “Hoechst 33342 nuclear staining score” value in assay [2] (HeLa, conc 0.01 μm) was 0; in assay [2] (HeLa, conc 0.1 μm) it was 0; in assay [2] (HeLa, conc 1 μm), 0; in assay [2] (Jurkat, conc 0.01 μm), 0; in assay [2] (Jurkat, conc 0.1 μm), 0; in assay [2] (Jurkat, conc 1 μm), 0. Moreover, the “Hoechst 33342 nuclear staining score” value in assay [2] (MRC5, conc 0.01 μm) was 0; in assay [2] (MRC5, conc 0.1 μm), 0; in assay [2] (MRC5, conc 1 μm), 0; in assay [2] (PBLs, conc 0.01 μm), 0; in assay [2] (PBLs, conc 0.1 μm) it was 0; in assay [2] (PBLs, conc 1 μm) it was 0.
